Experimental data as given in patent US10550153B2, “Peptide or pharmaceutically acceptable salt thereof, or prodrug thereof” (Tokyo University of Pharmacy & Life Sciences, priority 2017, dated 2020).
“Also recorded” adds a separate entry of the source. Where a SMILES comes first, the peptide text is derived from it. [ ]: non-standard residue; d: D form. The star is where a group is joined. Propanoyl(3-cHex) = O=C(CCC1CCCCC1)*; Orn = NCCC[C@H](N)C(=O)O; Dab = NCC[C@H](N)C(=O)O; Dap = NC[C@H](N)C(=O)O

Legend:
[1] = target: T1, hNMUR2 (Homo sapiens, UniProt Q9GZQ4); test: In vitro agonist activity for human neuromedin U receptor (intracellular calcium, Fluo-4, CHO cells stably expressing the receptor); type: cell-based; details: at a concentration of 100 nM; versus hNMUR1; selective = relative agonist activity for NMUR1 18% or less at 1000 nM and for NMUR2 48% or more at 100 nM
T1 construct: expressed in transfected cells
T1 sequence (Q9GZQ4 whole entry): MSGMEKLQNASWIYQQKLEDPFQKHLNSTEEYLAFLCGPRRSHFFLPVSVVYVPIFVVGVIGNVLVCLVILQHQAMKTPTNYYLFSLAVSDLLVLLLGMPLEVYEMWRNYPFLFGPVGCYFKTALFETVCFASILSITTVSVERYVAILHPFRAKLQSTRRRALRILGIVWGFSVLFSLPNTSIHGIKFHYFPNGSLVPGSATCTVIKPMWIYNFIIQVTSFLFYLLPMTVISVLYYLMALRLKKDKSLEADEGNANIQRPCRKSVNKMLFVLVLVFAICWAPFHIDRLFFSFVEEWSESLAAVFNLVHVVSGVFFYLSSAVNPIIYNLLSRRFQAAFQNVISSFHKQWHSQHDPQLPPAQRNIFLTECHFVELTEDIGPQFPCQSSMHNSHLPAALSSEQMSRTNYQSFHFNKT
Method: For CPN-219 which has been synthesized in Synthesis Example 1, evaluation of the agonist activity for type 1 and type 2 human neuromedin U receptor (hNMUR1 and hNMUR2) was carried out according to the following method.
CHO cells derived from Chinese hamster ovary which stably express hNMUR1 or hNMUR2 were cultured in a 5% (v/v) CO2 incubator at 37° C. by using MEM alpha (GIBCO (registered trademark), Thermo Fisher Scientific Inc.) medium containing 1 mg/mL G418 (NACALAI TESQUE, INC.), 10% (v/v) fetal bovine serum (FCS) and nucleosides (adenosine 10 mg/L, cytidine 10 mg/L, guanosine 10 mg/L, uridine 10 mg/L, 2′-deoxyadenosine 10 mg/L, 2′-deoxycytidine hydrochloride 11 mg/L, 2′-deoxyguanosine 10 mg/L, thymidine 10 mg/L).
The CHO cells were sown on a 96 well black-walled plate with clear bottom (Iwaki: AGC TECHNO GLASS CO., LTD.) at 2.0×10^4 cells per well (150 μL DMEM+10% (v/v) FBS), and then cultured for 18 hours.
(§1) After the culture, 100 μL of Fluo-4 AM (Promega Corporation) solution as a fluorescent indicator of intracellular calcium concentration was added to each well, in which the solution has been prepared such that it has the final concentration of 4 μM in assay buffer (HBSS, 10 mM HEPES, 2.5 mM probenecid, 1% (v/v) FCS: pH 7.4). After culture for 40 minutes at 37° C., the cells were washed 4 times with the assay buffer and set in a fluorometric imaging plate reader (Molecular Devices, LLC.).
The peptide as a test sample was dissolved by using dimethyl sulfoxide (DMSO) such that the stock solution is present at 20 mM, and then it was stored at 4° C. One hour before addition to the cells, by using an assay buffer added with 0.05% (v/v) bovine serum albumin (BSA) and […] Triton (registered trademark) X-100, preparation to arbitrary final concentration was made (10^−12 to 10^−6 M), and the fluorescence based on the activity of recruiting intracellular calcium by the peptide (i.e., agonist activity) was measured by using a fluorometric imaging plate reader.

[2] = test system: ddy male mouse; test: Suppression of increase in prolactin concentration in blood under restraint stress; type: in vivo; details: 200 μg/5 μL intranasal, restraint stress 20 minutes, ELISA
Method: Peptide solution (200 μg/5 μL) or physiological saline (5 μL) was administered to the nasal cavity of a ddY male mouse. After 20 minutes, restraint stress (i.e., addition to the inside of a tube) was applied for 20 minutes and blood was taken by cutting off the animal head. Then, the PLT concentration in plasma was analyzed by using Mouse Prolactin DuoSet ELISA (R&D systems).
Furthermore, for a ddY male mouse which has not been administered with the peptide solution (200 μg/5 μL) or physiological saline (5 μL), and also not applied with any stress, the PLT concentration in plasma was analyzed in the same manner as above.

[3] = Pharmacokinetics of peptides in rat after administration via jugular vein; type: in vivo; details: Wistar rat, 500 μg/200 μL via jugular vein, 1 to 240 minutes; compared to CPN-116
Method: The peptide solution (500 μg/200 μL) was administered via jugular vein of a Wistar rat. After arbitrary time period (1 to 240 minutes), blood was taken from the femoral artery which has been subjected to cannulation in advance. According to the LC/MS analysis, pharmacokinetics of the peptide was analyzed. The LC/MS analysis was carried out under the same conditions as above.

[4] = test system: ddy male mouse; test: Suppression of body weight gain and food intake upon intranasal administration to a mouse; type: in vivo; details: 64 μg or 213 μg once intranasally, Day 1 to 5, versus physiological saline
Method: CPN-219, each dissolved at 64 μg or 213 μg in physiological saline (5 μL), was administered once to the nasal cavity of a ddy male mouse under anesthetization. As a control, physiological saline (5 μL) was administered once to the nasal cavity. For each administration group, the body weight of a mouse and food intake amount were measured immediately before the administration, each of Day 1 to 5 from immediately after the administration.
The body weight of a mouse was 29.0±0.83 g for the group with intranasal administration of 64 μg, or 27.7±1.29 g for the group with intranasal administration of 213 μg.

[5] = test system: ddy male mouse; test: Fluctuation in corticosterone concentration in blood; type: in vivo; details: 200 μg/5 μL intranasal, after 5 minutes
Method: Peptide solution (200 μg/5 μL) or physiological saline (5 μL) was administered, either intranasally or peritoneally, to a ddY male mouse. After 5 minutes, blood was taken from the caval vein, and corticosterone concentration in plasma was analyzed according to the LC/MS analysis. Furthermore, as a control, without administering the peptide solution (200 μg/5 μL) or physiological saline (5 μL), blood was taken […] from the caval vein, and corticosterone concentration in plasma was analyzed according to the LC/MS analysis. The LC/MS analysis was carried out under the same conditions as above.

[6] = target: T2, mNMUR2 (Mus musculus, UniProt Q8BZ39); test: In vitro agonist activity for mouse neuromedin U receptor (intracellular calcium, Fluo-4, transfected HEK293 cells); type: cell-based; details: at a concentration of 100 nM, versus mNMUR1
T2 construct: expressed in transfected cells; host or cells: HEK293 cells (transient transfection with FuGENE6)
T2 sequence (Q8BZ39 whole entry): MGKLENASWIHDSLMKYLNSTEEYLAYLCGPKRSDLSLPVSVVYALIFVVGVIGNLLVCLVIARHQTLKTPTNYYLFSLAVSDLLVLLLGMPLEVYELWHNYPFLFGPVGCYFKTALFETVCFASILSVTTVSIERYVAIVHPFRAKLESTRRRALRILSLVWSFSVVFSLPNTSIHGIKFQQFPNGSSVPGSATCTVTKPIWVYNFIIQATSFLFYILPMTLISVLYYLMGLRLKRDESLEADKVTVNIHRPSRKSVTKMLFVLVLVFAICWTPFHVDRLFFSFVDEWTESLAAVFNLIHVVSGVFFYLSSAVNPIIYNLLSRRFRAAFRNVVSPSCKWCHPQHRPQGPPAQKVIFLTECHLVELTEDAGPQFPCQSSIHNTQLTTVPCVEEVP
Method: For CPN-219 which has been synthesized in Synthesis Example 1, evaluation of the agonist activity for type 1 and type 2 mouse neuromedin U receptor (mNMUR1 and mNMUR2) was carried out according to the following method.
HEK293 cells derived from human embryonic kidney were cultured in a 5% (v/v) CO2 incubator at 37° C. by using DMEM-high glucose (GIBCO (registered trademark), Thermo Fisher Scientific Inc.) medium containing 10% (v/v) FCS.
Cells were sown on a 100 mm dish at 5.0×10^5 cells (10 mL DMEM+10% FBS), and then cultured for 18 hours. After the culture, by using FuGENE6 (Promega Corporation), the cultured cells were transfected with an expression plasmid which encodes mNMUR1 or mNMUR2 (2.5 μg). The cells were cultured for 18 hours. […]
as §1, with “On the next” for “After the culture,”, “On the next day, 100 μL” for “After the culture, 100 μL”, “probenecid, 1% FCS: pH” for “probenecid, 1% (v/v) FCS: pH”, “Devices, LLC.). […]” for “Devices, LLC.).”

[7] = Brain delivery upon intranasal administration to a mouse; type: in vivo; details: ddY male mouse, 200 μg/5 μL intranasal, after 5 minutes; compared to CPN-116
Method: Peptide solution (200 μg/5 μL) was administered to the nasal cavity of a ddY male mouse. After 5 minutes, the animal was sacrificed and the brain tissues were collected. According to the LC/MS analysis, concentration of the peptide in plasma and brain was analyzed, and the ratio of concentration in brain compared to concentration in plasma was analyzed. The LC/MS analysis was carried out under the same conditions as above.

[8] = Stability in rat plasma (LC/MS); type: in vitro ADME; details: 37° C.
Method: Peptide solution was added to rat plasma such that the final peptide concentration is 50 μg/mL, and then incubated for arbitrary time period (0.5 to 6 hours) at 37° C. After the arbitrary time period, sampling was carried out and high performance liquid chromatography mass spectrometry (LC/MS) was performed under the following conditions followed by stability analysis.
LC/MS System: LC-MS2020 (SHIMADZU CORPORATION)
Column: TSKgel ODS-100V (Tosoh Corporation, 3.0 μm, 2.0 mm×75 mm)
Mobile layer: 0.1% trifluoroacetic acid (pH 2.5):acetonitrile=2:1
Column temperature: 40° C.
Detection: ESI^+, m/z=425.

[9] = Stability in phosphate buffer solution (HPLC recovery rate); type: physicochemical
Method: Peptide solution was prepared (1 mL) by using a 100 mM phosphate buffer solution (pH 7.4) so as to have the final concentration of 1 mM, and then the peptide solution was incubated for arbitrary time period (1 to 72 hours) in a water bath at 37° C. After the arbitrary time period, sampling was carried out and 20 μL of injection into high performance liquid chromatography (HPLC) (column: COSMOSIL (registered trademark) Cholester Packed Column 4.6 mmI.D.×150 mm; gradient: % B 25-35, 30 min [A: H2O-0.1% (v/v) TFA; B: MeCN]; flow rate: 1.0 mL/min; measurement wavelength: 220 nm) was made. Then, by taking the obtained area value as an indicator, the stability was analyzed from the recovery rate (%) of the compound.

[10] = 2 hours, read-out: recovery rate in rat plasma after 2 hours
[11] = 100 mM phosphate buffer solution pH 7.4, 37° C., after 48 hours

**Q.** Which “hNMUR2 selective agonist activity” value [1] does the source give for “3-Cyclohexylpropionyl-Leu-Leu-Orn-Pro-Arg-Asn-NH2 ({Propanoyl(3-cHex)}-LL[Orn]PRN-NH2; SMILES CC(C)C[C@H](NC(=O)CCC1CCCCC1)C(=O)N[C@@H](CC(C)C)C(=O)N[C@@H](CCCN)C(=O)N1CCC[C@H]1C(=O)N[C@@H](CCCNC(=N)N)C(=O)N[C@@H](CC(N)=O)C(N)=O) [CPN-221]” here?
**A.** Its value is “exhibited the hNMUR2 selective agonist activity”.

**Q.** For `CC(C)C[C@H](NC(=O)CCC1CCCCC1)C(=O)N[C@@H](CC(C)C)C(=O)N[C@@H](CCN)C(=O)N1CCC[C@H]1C(=O)N[C@@H](CCCNC(=N)N)C(=O)N[C@@H](CC(N)=O)C(N)=O` [CPN-219, 3-Cyclohexylpropionyl-Leu-Leu-Dbu-Pro-Arg-Asn-NH2] ({Propanoyl(3-cHex)}-LL[Dab]PRN-NH2), which “prolactin secretion (PLT concentration in plasma)” value [2] is on record?
**A.** The value was “suppresses the prolactin secretion”.

**Q.** And the “pharmacokinetics in rat blood” value [3]?
**A.** The value was “more favorable pharmacokinetics in rat blood”.

**Q.** And the “body weight gain of a mouse” value [4]?
**A.** Its value is “significantly suppressed the body weight gain”.

**Q.** What about the “food intake of a mouse” value [4] of the same molecule?
**A.** The value was “significantly suppressed”.

**Q.** What about the “corticosterone concentration in blood” value [5] of the same molecule?
**A.** The value was “significantly increased the corticosterone concentration in blood”.

**Q.** And the “mNMUR2 selective agonist activity” value [6]?
**A.** Its value is “exhibited the mNMUR2 selective agonist activity”.

**Q.** And the “hNMUR2 selective agonist activity” value [1]?
**A.** Its value is “exhibited the NMUR2 selective agonist activity”.

**Q.** And the “brain delivery (ratio of concentration in brain to concentration in plasma; transfer to olfactory bulb)” value [7]?
**A.** Its value is “more favorable transfer to an olfactory bulb”.

**Q.** And the recovery at 2 hours, 50 μg/mL [8, 10]?
**A.** Its recovery at 2 hours, 50 μg/mL is ≥ 80%.

**Q.** What about the recovery at 6 hours, 50 μg/mL ([8]; 6 hours, read-out: recovery rate in rat plasma after 6 hours) of the same molecule?
**A.** Its recovery at 6 hours, 50 μg/mL is ≥ 60%.

**Q.** With `CC(C)C[C@H](NC(=O)CCC1CCCCC1)C(=O)N[C@@H](CC(C)C)C(=O)N[C@@H](CN)C(=O)N1CCC[C@H]1C(=O)N[C@@H](CCCNC(=N)N)C(=O)N[C@@H](CC(N)=O)C(N)=O` [CPN-116, 3-Cyclohexylpropionyl-Leu-Leu-Dpr-Pro-Arg-Asn-NH2] ({Propanoyl(3-cHex)}-LL[Dap]PRN-NH2) as the molecule, how does the “converted to CPN-220 in phosphate buffer solution” value [9, 11] read?
**A.** Its value is ≥ 70%.

**Q.** What about the “chemical stability (in words)” value ([9]; 100 mM phosphate buffer solution, conclusion from Test Examples 11 and 12) of the same molecule?
**A.** The value was “chemically unstable”.

**Q.** What about the recovery at 2 h, 50 μg/mL [8, 10] of the same molecule?
**A.** Its recovery at 2 h, 50 μg/mL is ≤ 3%.

**Q.** For “3-Cyclohexylpropionyl-Leu-Leu-Dpr-Pro-Arg-Asn-NH2 ({Propanoyl(3-cHex)}-LL[Dap]PRN-NH2) [CPN-220]”, which “converted to CPN-116 in phosphate buffer solution” value [9, 11] is on record?
**A.** The value was ≥ 25%.

**Q.** What about the “hNMUR2 selective agonist activity” value [1] of the same molecule?
**A.** The value was “did not exhibit the hNMUR2 selective agonist activity; also recorded: does not show the hNMUR2 selective agonist activity”.
